Molecular target: farnesyl pyrophosphate synthase (Trypanosoma cruzi)
Assay: Inhibitory concentration against Trypanosoma cruzi farnesyl pyrophosphate synthase (TcFPPS)

Structure (SMILES) | IC50
CCCC(N)(P(=O)(O)O)P(=O)(O)O [(1-Amino-1-phosphono-butyl)-phosphonic acid] | 30.8 µM
CC(N)(P(=O)(O)O)P(=O)(O)O [(1-Amino-1-phosphono-ethyl)-phosphonic acid] | 66.7 µM
CCCCCCC(N)(P(=O)(O)O)P(=O)(O)O [(1-Amino-1-phosphono-heptyl)-phosphonic acid] | 3.57 µM
CCCCCC(N)(P(=O)(O)O)P(=O)(O)O [(1-Amino-1-phosphono-hexyl)-phosphonic acid] | 0.382 µM
CCCCC(N)(P(=O)(O)O)P(=O)(O)O [(1-Amino-1-phosphono-pentyl)-phosphonic acid] | 3.91 µM
CCC(N)(P(=O)(O)O)P(=O)(O)O [(1-Amino-1-phosphono-propyl)-phosphonic acid] | 150 µM
